Experimental data taken from patent publication US6211196A, “Benzyloxy-substituted, fused N-heterocycles, processes for their preparation, and their use as bradykinin receptor antagonists” (Aventis Pharma Deutschland GmbH, priority 1997, dated 2001).

How the values were obtained:
bradykinin β2 receptor = target: T1, bradykinin β2 receptor (Cavia porcellus, UniProt O70526); test: Ki on membrane preparations of guinea-pig ileum, 3H-bradykinin competition; assay type: binding; details: 3H-bradykinin 0.25 to 0.3 nmol/l, guinea-pig ileum membranes, room temperature, 60 minutes, pH 6.8
T1 construct: membrane preparations of the guinea-pig ileum; from tissue; host or cells: guinea-pig ileum membranes
T1 sequence (O70526 1-372): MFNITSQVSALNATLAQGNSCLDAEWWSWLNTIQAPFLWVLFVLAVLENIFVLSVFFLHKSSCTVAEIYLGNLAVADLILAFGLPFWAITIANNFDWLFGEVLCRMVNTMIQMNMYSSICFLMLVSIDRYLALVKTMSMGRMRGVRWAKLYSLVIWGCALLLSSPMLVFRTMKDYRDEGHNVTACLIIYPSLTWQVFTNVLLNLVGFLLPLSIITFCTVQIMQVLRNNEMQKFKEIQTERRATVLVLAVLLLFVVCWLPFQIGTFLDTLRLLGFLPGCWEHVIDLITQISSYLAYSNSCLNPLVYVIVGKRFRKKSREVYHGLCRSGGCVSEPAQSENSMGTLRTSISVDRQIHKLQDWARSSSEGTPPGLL
Protocol: B. Innis et al., Proc. Natl. Acad. Sci. USA, 17 (1981) 2630) according to the following procedure: […] Ligand: ^3 H-BRADYKININ (from NEN Du Pont) Both buffers are adjusted to pH 6.8 using 5 molar NaOH. Guinea-pig ilea are grossly freed from intestinal contents by careful brushing and cleaned in 0.9% strength NaCl solution. The pieces of ilea about 2 cm long are transferred to ice-cold TES buffer (about 1 g/10 ml) and homogenized in an ice bath for about 30 sec. using an Ultraturrax. The homogenate is then filtered through three layers of gauze, and the filtrate is centrifuged at 50,000 g/10 minutes. The supernatant is discarded, and the pellet is rehomogenized in the same volume of TES buffer and centrifuged again at 50,000 g/10 minutes. The pellet is rehomogenized in incubation buffer (about 1 g/5 ml) and frozen at -70° C. in cryotubes in 2 ml portions. The protein concentration of the finished membrane suspension is determined according to LOWRY and should be about 15 μg/100 μl. All incubations are carried out at room temperature for 60 minutes on microtiter plates (96×300 μl) in a 200 μl volume. All mixtures are in incubation buffer. To this end, 50 μl of the radioligand, 50 μl of the preparation to be tested, and 100 μl of the membrane suspension are pipetted into the hollows of the microtiter plate in succession. Nonspecific binding: for each concentration of the radioactive ligand, the nonspecific binding must be determined. […] In this test, HOE 140 (10 μmol/l) is used. […] The reaction is started by the addition of 100 μl of the membrane suspension. Here a fixed quantity of the radioactive ligand (0.25 to 0.3 nmol/l of ^3 H-bradykinin) and various concentrations of the unlabeled agonists or antagonists are employed. 50 μl of the preparations or standard to be tested in the concentrations 10^-5 to 10^-10 mol/l are added to 50 μl in each case of the ^3 H-bradykinin solution, and the reaction is started by addition of 100 μl of membrane suspension. Triplicate determinations also are carried out in this test, and three samples are incubated with 10 μmol/l of HOE 140 to determine the nonspecific binding. The preparations to be tested for competition are completely dissolved in a concentration of 1 mmol/l in dimethyl sulfoxide (DMSO), and then further diluted with DMSO. This solution is then diluted 1:25 with incubation buffer. […] The still moist filters are punched out into mini-scintillation tubes, and these are filled with 3 ml of scintillator. After a soaking time of about 12 hours, the samples are briefly shaken and measured in a beta-counter. […] If a displacement of the radioligand of 50% or more is detectable at the highest concentration, a complete analysis (competition experiment) is carried out using at least 8 concentrations. Assessment is carried out by means of the LIGAND program package (McPherson, Minson & Rodbard, marketed by: Elsevier-BIOSOFT), which carries out the necessary calculations for the determination of IC50 and Ki values. This program moreover carries out graphic presentations of the saturation or displacement curves as well as the SCATCHARD plot, HILL plot, or HOFSTEE plot.

[1] = system: bradykinin-induced contraction of the guinea-pig ileum; test: bradykinin-induced contraction of the guinea-pig ileum; details: isolated guinea-pig ileum, bradykinin 4×10^-8 mol/l, antagonist action time 10 min, 37° C.
Text: In addition, for the determination of the bradykinin-antagonistic action of the compounds of fomula (I), their effect on the bradykinin-induced contraction of the guinea-pig ileum can be measured according to the following protocol:
Guinea-pigs about 300 g in weight (Morioth strain, .male..female.) are killed by a blow to the neck and exsanguinated. The ileum is dissected out in a length of about 20 cm, rinsed with Tyrode solution (Record Syringe), and thus freed from the intestinal contents. It is then divided into sections 1.5 cm long. These are fixed in organ baths of 10 ml capacity, which are filled with Tyrode solution, and connected to extension-measuring strips (isometric contraction measurement). The preload is 1 g. The Tyrode solution is warmed to 37° C. in a water bath and bubbled through with compressed air. After an interval of 30 min, the experiment is begun. After recording the biological zero line, bradykinin in a final concentration of 4×10^-8 mol/l is added per organ bath, and the […] is recorded. Rinsing with Tyrode solution is then carried out for three min., and after a break of 20 min., bradykinin is again added. The maximum of the contraction is achieved (control). Rinse again, break. […] The experiment is recorded on a pen recorder.
Thus, the compounds of Examples 6 and 20, for example, have the following IC50 values determined by the above procedure: […]

| Compound | Ki (bradykinin β2 receptor) | IC50 [1] |
| --- | --- | --- |
| COc1c(N(C)C(=O)CNC(=O)/C=C/c2ccc(C(F)(F)F)cc2)ccc(SC)c1COc1cccc2ccc(C)nc12 [Example 16] | 17.4 nM | – |
| Cc1ccc2cccc(OCc3c(Cl)ccc(N(C)C(=O)CNC(=O)NCCCCN)c3C#N)c2n1 [Example 6, 8-[6-Chloro-2-cyano-3-[N-(4-aminobutylaminocarbonylglycyl-N-methyl]aminobenzyloxy]-2-methylquinoline bistrifluoroacetate] | 0.1 nM | 350 nM |
| CCNC(=O)NCC(=O)N(C)c1ccc(OC)c(COc2cccc3ccc(C)nc23)c1C#N [Example 9, N-[2-Cyano-4-methoxy-3-(2-methylquinolin-8-yloxymethyl)phenyl]-2-(3-ethylureido)-N-methylacetamide] | 6 nM | – |
| COC(=O)CCCCC(=O)NCC(=O)N(C)c1ccc(OC)c(COc2cccc3ccc(C)nc23)c1SC [Example 20, 8-[6-Methoxy-2-methylthio-3-(N-5-methoxycarbonylpentanoylglycyl-N-methyl)aminobenzyloxy]-2-methylquinoline] | 5.4 nM | 56 nM |
| CSc1ccc(N(C)C(=O)CNC(=O)/C=C/c2ccc(NC(C)=O)nc2)c(SC)c1COc1cccc2ccc(C)nc12 [Example 24, 8-[2,6-Dithiomethyl-3-(3-(6-acetylaminopyridin-3-yl)acryloylglycyl-N-methyl)aminobenzyloxy]-2-methylquinoline] | 1 nM | – |
| CCNC(=O)NCC(=O)N(C)c1ccc(Cl)c(COc2cccc3ccc(C)nc23)c1C#N [Example 1, 8-[6-Chloro-2-cyano-3-(N-ethylaminocarbonylglycyl-N-methyl)amino-benzyloxy]-2-methylquinoline] | 8.3 nM | – |
